This is an account of results in patent US7700606B2, “Imidazole amines as inhibitors of β-secretase” (Wyeth LLC, priority 2006, dated 2010).

One data set deals with T1, human BACE2 (Homo sapiens, UniProt Q9Y5Z0).
T1 sequence (Q9Y5Z0 63-518): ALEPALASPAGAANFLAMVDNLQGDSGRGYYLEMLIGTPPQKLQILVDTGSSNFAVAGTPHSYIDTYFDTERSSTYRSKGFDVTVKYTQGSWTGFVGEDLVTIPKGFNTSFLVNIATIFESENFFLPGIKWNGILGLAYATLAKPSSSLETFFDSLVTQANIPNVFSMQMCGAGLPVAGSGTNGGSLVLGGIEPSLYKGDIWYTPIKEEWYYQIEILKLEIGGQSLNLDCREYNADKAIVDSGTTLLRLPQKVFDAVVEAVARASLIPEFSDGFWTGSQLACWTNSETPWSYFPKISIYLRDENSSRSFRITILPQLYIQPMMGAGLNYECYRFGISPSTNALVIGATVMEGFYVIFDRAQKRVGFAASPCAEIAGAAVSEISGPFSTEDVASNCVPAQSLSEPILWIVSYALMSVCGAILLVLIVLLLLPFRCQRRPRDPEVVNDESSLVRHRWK
Briefly: Fluorescent kinetic assay for human recombinant BACE 2 (WABC-6 peptide substrate). It is filed as biochemical. The note with it: for IC50: 1.5 nM enzyme, 25 μM substrate, pH 4.5, room temperature. Here is the method: (§1) Evaluation of the Enzyme Activity of Test Compounds and the Inhibition of hBACE1, MuBACE1 and hBACE2 by Test Compounds
Assay Conditions: 10 nM human BACE1 (or 10 nM Murine BACE1, 1.5 nM human BACE2) 25 μM substrate (WABC-6, MW 1549.6, from AnaSpec); final buffer conditions: 50 mM Na-Acetate, pH 4.5, 0.05% CHAPS, 25% PBS; temperature: room temperature; reagent information: Na-Acetate: Aldrich, Cat.#24,124-5 CHAPS: Research Organics, Cat. #1304C 1× PBS: Mediatech (Cellgro), Cat#21-031-CV; peptide substrate AbzSEVNLDAEFRDpa: AnaSpec, Peptide Name: WABC-6; determination of stock substrate (AbzSEVNLDAEFRDpa) concentration: a 25 mM stock solution in dimethyl sulfoxide (DMSO) is prepared using the peptide weight and MW and diluted to 25 μM. The concentration is determined by absorbance at 354 nm using an extinction coefficient ε of 18172 M^−1 cm^−1, The substrate stock is stored in small aliquots at −80° C. [Substrate Stock]=ABS^354 nm*10^6/18172 (in mM)
Calculation of % Inhibition: % Inhibition=100*(1−vi/v0) • (vi=substrate cleavage rate in the presence of inhibitor, • v0=substrate cleavage rate in the absence of inhibitor) IC50 Determination: % Inhibition=[(B*IC50^n)+(100*I0^n)]/(IC50^n+I0^n), Fluorescent Kinetic Assay for Human Recombinant BACE 2
This assay is used to provide kinetic and selectivity parameters for the analyses of the tested compounds.
Materials and methods: final assay conditions: 10 nM human BACE1 (or 10 nM Murine BACE1, 1.5 nM human BACE2) 25 μM Substrate (WABC-6, MW 1549.6, from AnaSpec). Final buffer conditions: 50 mM Na-Acetate, pH 4.5, 0.05% CHAPS, 25% PBS. Temperature: room temperature. Reagent Information: Na-Acetate: Aldrich, Cat.#24,124-5 CHAPS: Research Organics, Cat. #1304C 1× PBS: Mediatech (Cellgro), Cat#21-031-CV Peptide Substrate AbzSEVNLDAEFRDpa: AnaSpec, Peptide Name: WABC-6
Determination of stock substrate (AbzSEVNLDAEFRDpa) concentration: A 25 mM stock solution in DMSO is prepared using the peptide weight and MW, and diluted to 25 μM. The concentration is determined by absorbance at 354 nm using an extinction coefficient ε of 18172 M^−1cm^−1. The substrate stock is stored in small aliquots at −80° C. [Substrate Stock]=ABS^354 nm*10^6/18172 (in mM)
Determination of stock enzyme concentration: The stock concentration of each enzyme is determined by ABS at 280 nm using ε of 64150 M^−1cm^−1 for hBACE1 and MuBACE1, 62870 M^−1cm^−1 for hBACE2 in 6 M guanidinium hydrochloride (from Research Organics, Cat. #5134G-2), pH 6. (The extinction coefficient ε^280 nm for each enzyme is calculated based on known amino acid composition and published extinction coefficients for Trp ([…]) and Tyr ([…]) residues (Anal. Biochem. 182, 319-326).)
Dilution and Mixing Steps: Total Reaction Volume: 100 μL • 1. 2× inhibitor dilutions in buffer A (66.7 mM Na-Acetate, pH 4.5, 0.0667% CHAPS) are prepared, • 2. 4× enzyme dilution in buffer A (66.7 mM Na-Acetate, pH 4.5, 0.0667% CHAPS) are prepared, • 3. 100 μM substrate dilution in 1× PBS, 50 μL 2× Inhibitor and 25 μL 100 μM substrate are added to each well of 96-well plate (from DYNEX Technologies, VWR #: 11311-046), then immediately 25 μL 4× enzyme is added to the inhibitor and substrate mixer and the fluorescence readings are initiated.
Fluorescence Readings: Readings at λex 320 nm, λem 420 nm are taken every 40-sec for 30 min at room temperature and to determine the linear slope for substrate cleavage rate (vi).
Analysis of calculation of % inhibition: % Inhibition=100*(1−vi/v0) • vi=substrate cleavage rate in the presence of inhibitor, • v0=substrate cleavage rate in the absence of inhibitor) • IC50 Determination: % Inhibition=((B*IC50^n)+(100*I0^n))/(IC50^n+I0^n),
Unless otherwise noted, the IC50 value represents the value obtained at […].

Another data set addresses human BACE1 (Homo sapiens, UniProt P56817). Nature of the data set: Fluorescent kinetic enzyme assay, inhibition of BACE1 (WABC-6 peptide substrate). The note with it: 10 nM enzyme, 25 μM substrate, pH 4.5, room temperature. It is filed as biochemical. Here is the method:
as §1
Dilution and mixing steps: total reaction volume: 100 μL • 1. […] 100 μM substrate dilution in 1× PBS is prepared, • 4.
Fluorescence Readings: Readings at λex 320 nm and λem 420 nm are taken every 40-sec for 30 min at room temperature to determine the linear slope for substrate cleavage rate (vi).

Chain of human BACE1 (P56817 46-501): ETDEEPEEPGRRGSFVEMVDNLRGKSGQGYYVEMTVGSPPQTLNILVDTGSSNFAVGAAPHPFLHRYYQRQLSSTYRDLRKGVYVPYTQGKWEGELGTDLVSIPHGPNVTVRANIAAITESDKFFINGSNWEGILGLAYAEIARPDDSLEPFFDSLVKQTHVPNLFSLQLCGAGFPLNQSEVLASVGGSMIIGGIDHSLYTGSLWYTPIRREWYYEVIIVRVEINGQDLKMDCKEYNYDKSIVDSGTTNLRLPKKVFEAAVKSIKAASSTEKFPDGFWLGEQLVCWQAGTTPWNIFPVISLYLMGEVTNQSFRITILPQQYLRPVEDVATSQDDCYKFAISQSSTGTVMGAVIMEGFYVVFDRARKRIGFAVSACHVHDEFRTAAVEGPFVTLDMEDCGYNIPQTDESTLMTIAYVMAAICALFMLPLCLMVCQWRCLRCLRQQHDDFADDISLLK

As to `NC1=NC(c2ccncc2)(c2cccc(-c3cccnc3F)c2)C2=NCCCN12` (stereo not drawn) [Example 1, 8-[3-(2-Fluoropyridin-3-yl)phenyl]-8-pyridin-4-yl-2,3,4,8-tetrahydroimidazo[1,5-a]pyrimidin-6-amine], the melting point (usually the temperature, or range, at which the solid turns liquid) fell in the range of 125 to 131 °C. The inhibition (usually the drop in the measured response relative to a control, in per cent) at 25 µM at human BACE2 worked out at 51%. Moreover, the 50% inhibitory concentration (IC50) (as a rule, the concentration at which inhibition is half-maximal) on human BACE1 amounted to 520 nM.
In the case of `NC1=NC(c2ccc(OC(F)(F)F)cc2)(c2cccc(-c3cccnc3F)c2)C2=NOCCN12` (stereo not drawn) [Example 5, 8-[3-(2-Fluoropyridin-3-yl)phenyl]-8-[4-(trifluoromethoxy)-phenyl]-3,4-dihydro-8H-imidazo[5,1-c][1,2,4]oxadiazin-6-amine], the melting point was 102 to 117 °C. On human BACE2, the IC50 came out at 2020 nM. The IC50 against human BACE1 amounted to 30 nM.
The compound `CCc1cc(C2(c3cccc(-c4cccnc4F)c3)N=C(N)N3CCCN=C32)cc(CC)n1` (stereo not drawn) [Example 2, 8-(2,6-Diethylpyridin-4-yl)-8-[3-(2-fluoropyridin-3-yl)phenyl]-2,3,4,8-tetrahydroimidazo[1,5-a]pyrimidin-6-amine] had a melting point of 174 to 176 °C. Besides, the inhibition at 25 µM at human BACE2 was 38%. Further, half-maximal inhibition at human BACE1 (IC50) required 10 nM.
Consider `NC1=NC(c2cccc(-c3cccnc3F)c2)(c2cnn(CC(F)(F)F)c2)C2=NCCCN12` (stereo not drawn) [Example 4, 8-[3-(2-Fluoropyridin-3-yl)phenyl]-8-[1-(2,2,2-trifluoroethyl)-1H-pyrazol-4-yl]-2,3,4,8-tetrahydroimidazo[1,5-a]pyrimidin-6-amine], for which the melting point lay within 106 to 116 °C. In addition, the IC50 at human BACE2 amounted to 5120 nM. Besides, on human BACE1, the IC50 is 80 nM.
Take `NC1=NC(c2ccc(OC(F)(F)F)cc2)(c2cccc(-c3cncc(F)c3)c2)C2=NCCON12` (stereo not drawn) [Example 6, 8-[3-(5-Fluoropyridin-3-yl)phenyl]-8-[4-(trifluoromethoxy)phenyl]-2,8-dihydro-3H-imidazo[1,5-b][1,2,4]oxadiazin-6-amine]: the melting point was 120 to 135 °C. Moreover, the IC50 at human BACE2 amounted to 1190 nM. At human BACE1, the IC50 was 50 nM.
Taken in the same sequence, the figures for `CCn1cc(C2(c3cccc(-c4cccnc4F)c3)N=C(N)N3CCCN=C32)cn1` (stereo not drawn) [Example 3, 8-(1-Ethyl-1H-pyrazol-4-yl)-8-[3-(2-fluoropyridin-3-yl)phenyl]-2,3,4,8-tetrahydroimidazo[1,5-a]pyrimidin-6-amine] were 91 to 115 °C, 3520 nM and 90 nM.
